The values below come from ChEMBL document CHEMBL5380814, “Targeting Receptor-Interacting Protein Kinase 1 by Novel Benzothiazole Derivatives: Treatment of Acute Lung Injury through the Necroptosis Pathway” (J Med Chem, 2023).

Activity calls are given as the source filed them. The calls are words filed in the database; no cut-off is given here.

In the first experiment the test system is HT-29. Briefly: Cytotoxicity against human HT-29 cells incubated for 16 to 24 hrs measured by cell-titre glo luminescent cell viability assay. It counts as functional. The settings on record: time 16-24 hrs.
Compound `O=C(Cc1cccc(C(F)(F)F)c1)Nc1cc(Oc2cc3sc(NC(=O)C4CCC(O)CC4)nc3cc2F)ccc1F` (stereo not given) showed a CC50 of over 100 µM.
`CCOCC(=O)NC1CCC(C(=O)Nc2nc3cc(F)c(Oc4ccc(F)c(NC(=O)Cc5cccc(C(F)(F)F)c5)c4)cc3s2)CC1` (stereo not given) yielded a CC50 of over 100 µM.
With `O=C(Cc1cccc(C(F)(F)F)c1)Nc1cc(Oc2cc3sc(NC(=O)C4CCC(NC(=O)OCc5ccccc5)CC4)nc3cc2F)ccc1F` (stereo not given), the CC50 is over 100 µM.
In turn, `O=C(Cc1cccc(C(F)(F)F)c1)Nc1cc(Oc2cc3sc(NC(=O)C4CCC(NC(=O)C5CCCC5)CC4)nc3cc2F)ccc1F` (stereo not given) registered a CC50 of over 100 µM.
With `O=C(Cc1cccc(C(F)(F)F)c1)Nc1cc(Oc2cc3sc(NC(=O)C4CCC(NC(=O)c5ccc(F)cc5)CC4)nc3cc2F)ccc1F` (stereo not given), the CC50 is over 100 µM.
`CC(C)CC(=O)NC1CCC(C(=O)Nc2nc3cc(F)c(Oc4ccc(F)c(NC(=O)Cc5cccc(C(F)(F)F)c5)c4)cc3s2)CC1` (stereo not given) registered a CC50 of over 100 µM.
On the same count and under the same terms, in the case of `O=C(Cc1cccc(C(F)(F)F)c1)Nc1cc(Oc2cc3sc(NC(=O)C4CCC(NC(=O)C5CC5)CC4)nc3cc2F)ccc1F` (stereo not given) it was over 100 µM; in that of `O=C1CCC(C(=O)Nc2nc3ccc(Oc4ccc(F)c(NC(=O)Cc5cccc(C(F)(F)F)c5)c4)cc3s2)CC1`, over 50 µM.
`O=C(Cc1cccc(C(F)(F)F)c1)Nc1cc(Oc2cc3sc(NC(=O)C4CCCC(NC(=O)C5CC5)C4)nc3cc2F)ccc1F` (stereo not given) gave a CC50 of over 100 µM.
For `CCCS(=O)(=O)NC1CCC(C(=O)Nc2nc3cc(F)c(Oc4ccc(F)c(NC(=O)Cc5cccc(C(F)(F)F)c5)c4)cc3s2)CC1` (stereo not given), the CC50 was over 100 µM.
As for `CCCC1CCC(C2CCC(C(=O)Nc3nc4cc(F)c(Oc5ccc(F)c(NC(=O)Cc6cccc(C(F)(F)F)c6)c5)cc4s3)CC2)CC1` (stereo not given), the CC50 is over 100 µM.
In turn, `O=C(Cc1cccc(C(F)(F)F)c1)Nc1cc(Oc2cc3sc(NC(=O)C4CCC(NC(=O)CCCl)CC4)nc3cc2F)ccc1F` (stereo not given) displayed a CC50 of over 100 µM.

The subject of another experiment is HT-29. Briefly: Anti-necroptotic activity in human HT-29 cells assessed as inhibition of human TNFalpha/Smac mimetic/Z-VAD-FMK induced necroptosis preincubated with compound followed by TSZ stimulation for 12 hrs.
Conditions: not given
It counts as functional, cell-based.
With `O=C(Cc1cccc(C(F)(F)F)c1)Nc1cc(Oc2cc3sc(NC(=O)C4CCC(O)CC4)nc3cc2F)ccc1F` (stereo not given), the outcome was inactive.
In the case of `CCOCC(=O)NC1CCC(C(=O)Nc2nc3cc(F)c(Oc4ccc(F)c(NC(=O)Cc5cccc(C(F)(F)F)c5)c4)cc3s2)CC1` (stereo not given), the outcome was inactive.
Consider `O=C(Cc1cccc(C(F)(F)F)c1)Nc1cc(Oc2cc3sc(NC(=O)C4CCC(NC(=O)OCc5ccccc5)CC4)nc3cc2F)ccc1F` (stereo not given), for which the outcome was inactive.
`O=C(Cc1cccc(C(F)(F)F)c1)Nc1cc(Oc2cc3sc(NC(=O)C4CCC(NC(=O)C5CCCC5)CC4)nc3cc2F)ccc1F` (stereo not given): the result was inactive.
Regarding `O=C(Cc1cccc(C(F)(F)F)c1)Nc1cc(Oc2cc3sc(NC(=O)C4CCC(NC(=O)c5ccc(F)cc5)CC4)nc3cc2F)ccc1F` (stereo not given), the outcome was inactive.
Regarding `CC(C)CC(=O)NC1CCC(C(=O)Nc2nc3cc(F)c(Oc4ccc(F)c(NC(=O)Cc5cccc(C(F)(F)F)c5)c4)cc3s2)CC1` (stereo not given), the result was inactive.
`O=C(Cc1cccc(C(F)(F)F)c1)Nc1cc(Oc2cc3sc(NC(=O)C4CCC(NC(=O)C5CC5)CC4)nc3cc2F)ccc1F` (stereo not given): the outcome was inactive.
Consider `O=C1CCC(C(=O)Nc2nc3ccc(Oc4ccc(F)c(NC(=O)Cc5cccc(C(F)(F)F)c5)c4)cc3s2)CC1`, for which the EC50 was 50 nM.
`O=C(Cc1cccc(C(F)(F)F)c1)Nc1cc(Oc2cc3sc(NC(=O)C4CCCC(NC(=O)C5CC5)C4)nc3cc2F)ccc1F` (stereo not given): the outcome was inactive.
Regarding `CCCS(=O)(=O)NC1CCC(C(=O)Nc2nc3cc(F)c(Oc4ccc(F)c(NC(=O)Cc5cccc(C(F)(F)F)c5)c4)cc3s2)CC1` (stereo not given), the result was inactive.
As for `CCCC1CCC(C2CCC(C(=O)Nc3nc4cc(F)c(Oc5ccc(F)c(NC(=O)Cc6cccc(C(F)(F)F)c6)c5)cc4s3)CC2)CC1` (stereo not given), the outcome was inactive.
As to `O=C(Cc1cccc(C(F)(F)F)c1)Nc1cc(Oc2cc3sc(NC(=O)C4CCC(NC(=O)CCCl)CC4)nc3cc2F)ccc1F` (stereo not given), the result was inactive.

In another experiment the test system is HT-29. The experiment can be described thus: Anti-necroptotic activity in human HT-29 cells assessed as inhibition of human TNFalpha/Smac mimetic/Z-VAD-FMK induced necroptosis preincubated with compound for 16 to 24 hrs followed by TSZ stimulation for 12 hrs measured by cell-titre glo luminescent cell viability assay. It is filed as functional, cell-based.
Conditions: not given
For `O=C(Cc1cccc(C(F)(F)F)c1)Nc1cc(Oc2cc3sc(NC(=O)C4CCC(O)CC4)nc3cc2F)ccc1F` (stereo not given), the EC50 is 95.6 nM.
On the same count and under the same terms, in the case of `CCOCC(=O)NC1CCC(C(=O)Nc2nc3cc(F)c(Oc4ccc(F)c(NC(=O)Cc5cccc(C(F)(F)F)c5)c4)cc3s2)CC1` (stereo not given) it was 48.4 nM.
Turning to `O=C(Cc1cccc(C(F)(F)F)c1)Nc1cc(Oc2cc3sc(NC(=O)C4CCC(NC(=O)OCc5ccccc5)CC4)nc3cc2F)ccc1F` (stereo not given), the EC50 worked out at 945 nM.
On the same count and under the same terms, in the case of `O=C(Cc1cccc(C(F)(F)F)c1)Nc1cc(Oc2cc3sc(NC(=O)C4CCC(NC(=O)C5CCCC5)CC4)nc3cc2F)ccc1F` (stereo not given) it was 72.9 nM; in that of `O=C(Cc1cccc(C(F)(F)F)c1)Nc1cc(Oc2cc3sc(NC(=O)C4CCC(NC(=O)c5ccc(F)cc5)CC4)nc3cc2F)ccc1F` (stereo not given), 55.2 nM.
Consider `CC(C)CC(=O)NC1CCC(C(=O)Nc2nc3cc(F)c(Oc4ccc(F)c(NC(=O)Cc5cccc(C(F)(F)F)c5)c4)cc3s2)CC1` (stereo not given), for which the EC50 was 47.5 nM.
For `O=C(Cc1cccc(C(F)(F)F)c1)Nc1cc(Oc2cc3sc(NC(=O)C4CCC(NC(=O)C5CC5)CC4)nc3cc2F)ccc1F` (stereo not given), the concentration for a half-maximal effect (EC50) was 50.5 nM.
With `O=C(Cc1cccc(C(F)(F)F)c1)Nc1cc(Oc2cc3sc(NC(=O)C4CCCC(NC(=O)C5CC5)C4)nc3cc2F)ccc1F` (stereo not given), the EC50 worked out at 71.2 nM.
`CCCS(=O)(=O)NC1CCC(C(=O)Nc2nc3cc(F)c(Oc4ccc(F)c(NC(=O)Cc5cccc(C(F)(F)F)c5)c4)cc3s2)CC1` (stereo not given): the EC50 turned out to be 119 nM.
Consider `CCCC1CCC(C2CCC(C(=O)Nc3nc4cc(F)c(Oc5ccc(F)c(NC(=O)Cc6cccc(C(F)(F)F)c6)c5)cc4s3)CC2)CC1` (stereo not given), for which the EC50 is over 10000 nM.
`O=C(Cc1cccc(C(F)(F)F)c1)Nc1cc(Oc2cc3sc(NC(=O)C4CCC(NC(=O)CCCl)CC4)nc3cc2F)ccc1F` (stereo not given): the half-maximal effective concentration (EC50) worked out at 50 nM.

Another experiment deals with Receptor-interacting serine/threonine-protein kinase 3 (Homo sapiens, UniProt Q9Y572). Briefly: Binding affinity to human wildtype full length RIPK3 (M1 to Q307 residues) expressed in bacterial expression system assessed as dissociation constant by kinome scan kd select based qPCR analysis.
Receptor-interacting serine/threonine-protein kinase 3, sequence (Q9Y572 whole entry, the tested form may be a part): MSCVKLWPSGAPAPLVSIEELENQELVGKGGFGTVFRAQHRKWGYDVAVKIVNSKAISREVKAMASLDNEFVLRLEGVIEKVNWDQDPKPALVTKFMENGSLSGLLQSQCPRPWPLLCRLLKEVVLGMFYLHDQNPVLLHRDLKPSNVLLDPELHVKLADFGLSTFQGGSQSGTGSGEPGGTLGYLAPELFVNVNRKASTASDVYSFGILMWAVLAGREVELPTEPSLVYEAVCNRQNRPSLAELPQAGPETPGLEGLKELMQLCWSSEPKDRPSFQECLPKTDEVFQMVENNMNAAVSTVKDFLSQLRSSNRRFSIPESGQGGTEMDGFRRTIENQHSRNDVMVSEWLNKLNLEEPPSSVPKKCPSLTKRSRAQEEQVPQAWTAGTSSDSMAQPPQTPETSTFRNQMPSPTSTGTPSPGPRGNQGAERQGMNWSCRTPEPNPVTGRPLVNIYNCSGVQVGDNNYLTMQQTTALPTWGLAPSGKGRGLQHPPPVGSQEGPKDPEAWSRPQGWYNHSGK
Conditions: not given
`CCOCC(=O)NC1CCC(C(=O)Nc2nc3cc(F)c(Oc4ccc(F)c(NC(=O)Cc5cccc(C(F)(F)F)c5)c4)cc3s2)CC1` (stereo not given): the Kd was over 10 µM.
In the case of `O=C(Cc1cccc(C(F)(F)F)c1)Nc1cc(Oc2cc3sc(NC(=O)C4CCC(NC(=O)CCCl)CC4)nc3cc2F)ccc1F` (stereo not given), the Kd was over 10 µM.

For another experiment, the target named is T1, Receptor-interacting serine/threonine-protein kinase 1 (Homo sapiens, UniProt Q13546).
T1 sequence (Q13546 whole entry): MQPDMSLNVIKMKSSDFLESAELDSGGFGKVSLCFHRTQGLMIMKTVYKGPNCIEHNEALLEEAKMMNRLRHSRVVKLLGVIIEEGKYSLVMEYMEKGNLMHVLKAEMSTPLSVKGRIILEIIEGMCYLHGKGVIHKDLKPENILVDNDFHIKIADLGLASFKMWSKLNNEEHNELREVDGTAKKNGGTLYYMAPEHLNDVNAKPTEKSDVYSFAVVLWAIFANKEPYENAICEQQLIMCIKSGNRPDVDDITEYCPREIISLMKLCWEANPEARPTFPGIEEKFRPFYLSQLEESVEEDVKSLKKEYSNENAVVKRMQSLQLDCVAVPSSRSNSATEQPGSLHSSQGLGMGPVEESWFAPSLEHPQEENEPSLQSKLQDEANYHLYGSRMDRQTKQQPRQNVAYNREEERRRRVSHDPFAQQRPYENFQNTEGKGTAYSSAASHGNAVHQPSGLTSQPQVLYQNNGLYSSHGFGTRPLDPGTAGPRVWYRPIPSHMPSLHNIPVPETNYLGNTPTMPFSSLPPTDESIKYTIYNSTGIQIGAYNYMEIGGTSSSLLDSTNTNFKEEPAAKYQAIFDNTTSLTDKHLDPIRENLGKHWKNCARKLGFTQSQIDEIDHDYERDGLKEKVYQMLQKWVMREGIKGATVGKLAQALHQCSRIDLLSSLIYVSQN
The experiment can be described thus: Binding affinity to human wildtype full length RIPK1 (M1 to K305 residues) expressed in bacterial expression system assessed as dissociation constant by kinome scan kd select based qPCR analysis.
Conditions: not given
As to `CCOCC(=O)NC1CCC(C(=O)Nc2nc3cc(F)c(Oc4ccc(F)c(NC(=O)Cc5cccc(C(F)(F)F)c5)c4)cc3s2)CC1` (stereo not given), the Kd came out at 15 nM.
In the case of `O=C(Cc1cccc(C(F)(F)F)c1)Nc1cc(Oc2cc3sc(NC(=O)C4CCC(NC(=O)CCCl)CC4)nc3cc2F)ccc1F` (stereo not given), the Kd was determined as 43 nM.

In a further experiment the test system is HT-29. Briefly: Cytotoxicity against human HT-29 cells incubated at 100 uM for 16 to 24 hrs measured by cell-titre glo luminescent cell viability assay. It is filed as functional, cell-based. The settings on record: time 16-24 hrs.
For the compound `O=C(Cc1cccc(C(F)(F)F)c1)Nc1cc(Oc2cc3sc(NC(=O)C4CCC(O)CC4)nc3cc2F)ccc1F` (stereo not given), the outcome was Active.
Still for that read-out and setting: in the case of `CCOCC(=O)NC1CCC(C(=O)Nc2nc3cc(F)c(Oc4ccc(F)c(NC(=O)Cc5cccc(C(F)(F)F)c5)c4)cc3s2)CC1` (stereo not given) it was “Active”.
For the compound `O=C(Cc1cccc(C(F)(F)F)c1)Nc1cc(Oc2cc3sc(NC(=O)C4CCC(NC(=O)OCc5ccccc5)CC4)nc3cc2F)ccc1F` (stereo not given), the outcome was Active.
With `O=C(Cc1cccc(C(F)(F)F)c1)Nc1cc(Oc2cc3sc(NC(=O)C4CCC(NC(=O)C5CCCC5)CC4)nc3cc2F)ccc1F` (stereo not given), the outcome was Active.
For the compound `O=C(Cc1cccc(C(F)(F)F)c1)Nc1cc(Oc2cc3sc(NC(=O)C4CCC(NC(=O)c5ccc(F)cc5)CC4)nc3cc2F)ccc1F` (stereo not given), the outcome was Active.
Turning to `CC(C)CC(=O)NC1CCC(C(=O)Nc2nc3cc(F)c(Oc4ccc(F)c(NC(=O)Cc5cccc(C(F)(F)F)c5)c4)cc3s2)CC1` (stereo not given), the result was Active.
With `O=C(Cc1cccc(C(F)(F)F)c1)Nc1cc(Oc2cc3sc(NC(=O)C4CCC(NC(=O)C5CC5)CC4)nc3cc2F)ccc1F` (stereo not given), the result was Active.
Take `O=C(Cc1cccc(C(F)(F)F)c1)Nc1cc(Oc2cc3sc(NC(=O)C4CCCC(NC(=O)C5CC5)C4)nc3cc2F)ccc1F` (stereo not given): the result was Active.
The same measure, in the same setting: in the case of `CCCS(=O)(=O)NC1CCC(C(=O)Nc2nc3cc(F)c(Oc4ccc(F)c(NC(=O)Cc5cccc(C(F)(F)F)c5)c4)cc3s2)CC1` (stereo not given) it was “Active”; in that of `CCCC1CCC(C2CCC(C(=O)Nc3nc4cc(F)c(Oc5ccc(F)c(NC(=O)Cc6cccc(C(F)(F)F)c6)c5)cc4s3)CC2)CC1` (stereo not given), “Active”; in that of `O=C(Cc1cccc(C(F)(F)F)c1)Nc1cc(Oc2cc3sc(NC(=O)C4CCC(NC(=O)CCCl)CC4)nc3cc2F)ccc1F` (stereo not given), “Active”.
